Laboratory results: patent US9617197B2, “Compositions and methods for treating inflammatory diseases” (University of Virginia Patent Foundation, priority 2010, dated 2017)

Key:
[1] = Chemical stability in pH 6.7 buffer; assay type: physicochemical
[2] = Toxicity in murine pre-clinical models; assay type: in vivo
[3] = biological target: T1, human recombinant LTA4H enzyme (LTA4H AP activity) (Homo sapiens, UniProt P09960); conditions: Jiang et al. (2008); cited from earlier work
T1 sequence (P09960 1-611): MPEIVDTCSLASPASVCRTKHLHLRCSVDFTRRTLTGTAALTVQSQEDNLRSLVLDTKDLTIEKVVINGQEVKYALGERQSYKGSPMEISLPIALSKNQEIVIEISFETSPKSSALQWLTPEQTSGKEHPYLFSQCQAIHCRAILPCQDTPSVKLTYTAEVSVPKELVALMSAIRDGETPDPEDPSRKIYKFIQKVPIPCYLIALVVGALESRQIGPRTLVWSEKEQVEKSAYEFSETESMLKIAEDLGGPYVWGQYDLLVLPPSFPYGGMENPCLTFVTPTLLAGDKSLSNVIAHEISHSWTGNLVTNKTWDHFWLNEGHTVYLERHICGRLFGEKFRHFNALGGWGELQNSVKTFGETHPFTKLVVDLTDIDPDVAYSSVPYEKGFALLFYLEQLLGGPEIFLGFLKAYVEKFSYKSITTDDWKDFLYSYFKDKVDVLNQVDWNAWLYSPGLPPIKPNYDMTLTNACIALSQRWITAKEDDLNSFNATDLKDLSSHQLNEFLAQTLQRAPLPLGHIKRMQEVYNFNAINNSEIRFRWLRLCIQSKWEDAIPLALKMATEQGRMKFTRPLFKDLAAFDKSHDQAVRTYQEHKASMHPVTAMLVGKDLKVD

[4] = biological target: T1, human recombinant LTA4H enzyme (LTA4H AP activity); test: In vitro aminopeptidase activity assay; assay type: biochemical; conditions: recombinant LTA4H + Ala-pNA; 500 μM, 10 μM, 5 μM, 100 nM; FIG. 2
Description: FIG. 2. In vitro aminopeptidase activity assay. The peptidase activity of compounds was determined following the method of Jiang and co-workers (2008). […] No Enzyme=buffer. Enzy=buffer+recombinant LTA4H. 500 μM, 10 μM, 5 μM, and 100 nM=buffer+recombinant LTA4H+Ala-pNA+MDM.
FIG. 7. Biological activities of 2-hydroxypropyl-β-cyclodextrin encapsulated 4-methoxydiphenylmethane (“CDX-MDM”). […] No Enzyme=buffer. 0 M=buffer+recombinant LTA4H+Ala-pNA+no MDM. 500 μM, 10 μM, 5 μM, and 100 nM=buffer+recombinant LTA4H+Ala-pNA+MDM (500 μM, 10 μM, 5 μM, or100 nM).
(§1) In order to establish the biological roles of LTA4H AP activity in the pathogenesis of pulmonary emphysema, wild type mice were exposed to porcine elastase via the intra-nasal route and then treated with one LTA4H AP activity augmentor (compound 66, MDM), a LTA4H AP activity inhibitor (compound 67, PDM), or vehicle (peanut oil). Synthesis of MDM was accomplished by treatment of 4-benzyl phenol in dimethylformamide solvent with potassium hydroxide followed by methyl iodide (FIG. 1). Synthesis of compound PDM was accomplished by treatment of 4-benzyl phenol in dimethylformamide solvent with potassium hydroxide followed by butyl iodide (FIG. 1). The peptidase activity of the compound was determined following the method of Jiang and co-workers (2008).

[5] = tested on: elastase induced murine pulmonary emphysema; test: Elastase-induced murine pulmonary emphysema model; assay type: in vivo, mice; conditions: for pre mortem lung compliance (Flexivent): 4 weeks after intra-nasal elastase, drug intra-peritoneal in peanut oil, FIG. 3; for severity of pulmonary emphysema: vs vehicle treated control animals
Description: To investigate the role that LTA4H plays in the pathogenesis of human diseases, murine models of elastase-induced pulmonary emphysema (Example 1) and LPS-induced acute lung injury (Example 3) were tested. In order to establish the elastase-dose dependent severity of murine pulmonary emphysema, increasing doses of porcine elastase were instilled into murine lungs of 129J background via the intra-nasal route. Four weeks after elastase was instilled, mouse lungs were harvested en block, inflated with 1% low melting point agarose gel (LMPA) at 25 cm melted 1% LMPA pressure. Lungs were then fixed overnight in formaldehyde. […] This confirmed that intra-nasal elastase administration was able to induce pulmonary emphysema in a dose-dependent manner.
as §1
Elastase (0.75 μg elastase per gm mouse weight) was instilled via the intra-nasal route. After 4 weeks, mice were sedated, intubated, and ventilated with Sireq Flexivent to measure lung compliance pre mortem. It was understood that lungs with more severe emphysema would have lost more elasticity, and thus, their lung compliance would be greater when measured by a small animal ventilator (FIG. 3). Once lung compliance was measured, mice were euthanized. Lungs were harvested en block without damaging outer coverings. Once harvested, lungs were inflated with 1% low melting point agarose gel (LMPA) at 25 cm melted 1% LMPA gel pressure. Once inflated, the total lung volumes were measured by volume displacement technique (FIG. 4). It was understood that lungs with more severe emphysema would have lost more elasticity, and thus their lung volume would be greater after being inflated with a uniform pressure. After the total lung volume measurement, lungs were fixed in para-formaldehyde overnight. On the following day, whole lungs were photographed (FIG. 5). Lungs with more severe emphysema would have lost more elasticity, and thus their lungs would be larger after being fixed with para-formaldehyde. The lungs were then paraffin embedded, paraffin sections were H&E stained (FIG. 6A), and morphometry was performed by using NIH ImagePro software and custom written macro string (Shim et al., 2006; Shim et al., 2010; Zheng et al., 2000; Zu et al., 1999). Alveolar intercepts were calculated and averaged from at least 8 animals in each group to yield chord length of each group (FIG. 6B). It was understood that alveoli from lungs with more severe emphysema would be larger after losing more elasticity and thus their chord length of the alveoli would be longer.

[6] = Bioavailability in mice; assay type: in vivo
[7] = Encapsulation and equilibrium solubility test (HPLC); assay type: physicochemical
Description: To 5.3 mg (1.0 equivalent) of MDM was added 160.0 mg (4.0 equivalents) of CDX followed by 4.8 mL of water. […] The homogeneity of the solution was analyzed by HPLC.
Solubility measurement. […] Method: isocratic 80:20 acetonitrile-water at 1.0 mL/min, injection volume=5 μL, monitoring at λ=250 nm.
The method was carried out above with phosphate buffer saline (PBS, Ampresco, 20× concentrate, pH7.5; 500 μL of PBS concentrate was added to 9500 μL of water). To 6.0 mg (1.0 equivalents) of MDM was added 180.0 mg (4.0 equivalents) of CDX followed by 5.8 mL of water. […] The homogeneity of the solution was analyzed by HPLC.
The method was carried out as above. To 2.4 mg (1.0 equivalents) of MDM was added 0.035 g (2.0 equivalents) of CDX followed by 2.4 mL of PBS solution. […] The homogeneity of the solution was analyzed by HPLC.

SMILES	chemical stability in pH 6.7 buffer [1]	mortality [2]	LTA4H AP activity in vitro [3]	LTA4H AP activity [4]	pre mortem lung compliance (Flexivent) [5]	post mortem total lung volume (volume displacement) ([5]; vs PDM or vehicle control, FIG. 4)	gross size of inflated whole lungs ([5]; vs PDM or vehicle control, FIG. 5)	lung histology chord length ([5]; vs drug 67 or vehicle (peanut oil), FIG. 6)	severity of pulmonary emphysema [5]	bioavailability ([6]; encapsulated formulation with 2-hydroxypropyl-β-cyclodextrin, intra-nasal administration to mice)	bioavailability ([6]; intra-peritoneal injection of mice, MDM combined with peanut oil)	concentration in solution by standard curve ([7]; 1:2 MDM:CDX in PBS, calculated 5.04 mM)	fraction of the MDM in the homogeneous solution at equilibrium ([7]; 1:2 ratio of MDM:CDX in PBS)	solubility with 2 equivalents of CDX ([7]; PBS solution)
COc1ccc(Oc2ccccc2)cc1 [1-methoxy-4-phenoxybenzene]	chemical instability	greater than 85%	upregulates											
COc1ccc(Cc2ccccc2)cc1 [MDM, 4-methoxydiphenylmethane]	stable			augment	significantly lower lung compliance	much less emphysematous	much smaller	shorter	significantly less severe	bioavailable	bioavailable	2950 µM	59%	590 µg/mL
CCCCCOc1ccc(Cc2ccccc2)cc1 [PDM, 4-pentoxydiphenylmethane]				decrease	high lung compliance similar to lungs treated with vehicle				deleterious outcomes					
